The record followed here is patent publication US8552201B2, “5, 6-bisaryl-2-pyridine-carboxamide derivatives, preparation and application thereof in therapeutics as urotensin II receptor antagonists” (Sanofi, priority 2006, dated 2013).

Molecules are shown by their SMILES. Counter-ions that a name gives are not always drawn.

For one test, the target named is T1, human GPR14 receptor (Homo sapiens, UniProt Q9UKP6).
T1 construct: expressed in transfected cells; host or cells: CHO cells (CHOGPR14)
T1 sequence (Q9UKP6 1-389): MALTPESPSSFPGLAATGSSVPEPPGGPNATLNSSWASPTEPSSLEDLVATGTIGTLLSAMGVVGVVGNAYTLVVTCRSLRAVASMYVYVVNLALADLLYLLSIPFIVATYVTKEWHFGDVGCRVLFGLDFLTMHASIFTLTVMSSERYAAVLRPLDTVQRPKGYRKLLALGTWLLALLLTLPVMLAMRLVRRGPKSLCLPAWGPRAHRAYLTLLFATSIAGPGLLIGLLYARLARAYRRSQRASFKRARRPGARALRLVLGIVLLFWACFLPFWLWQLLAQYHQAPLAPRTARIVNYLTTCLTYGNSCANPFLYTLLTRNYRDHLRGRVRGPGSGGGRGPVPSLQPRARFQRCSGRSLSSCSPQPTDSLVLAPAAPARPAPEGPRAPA
Put plainly: FlipR test of intracellular calcium mobilization (CHO GPR14 cells, urotensin II 3 nM). The test is classed as cell-based. Particulars: CHOGPR14 cells, inhibition of urotensin II (3 nM final) induced Ca2+ increase, Fluo-4AM. The source says:
(§1) The compounds according to the invention have undergone pharmacological testing for determining the properties of the compounds of the invention, including in particular: • a test in vitro of intracellular calcium mobilization (FlipR test) employing urotensin II antagonists (the compounds of the present invention) of the human GPR14 receptor, • a function test of contraction of rat aorta rings, also employing urotensin II antagonists represented by the compounds of the present invention.
1. FlipR (Fluorometric Imaging Plate Reader) Protocol
The purpose is to measure the activation of the GPR14 receptor by human urotensin II.
GPR14 is a Gq-coupled receptor with 7 transmembrane domains. Its activation by a specific ligand causes an increase in Ca^2+ in the cell via the PLC (Phospholipase C), IP3 (Inositol-1,4,5-triphosphate) DAG (Diacylglycerol) pathway. The increase in Ca^2+ in the cell is measured by means of the Fluo4AM permeating probe (mono-excitation, mono-emission probe) which binds to free Ca^2+ and emits at 520 nm. The free probe is non-fluorescent in the absence of Ca^2+.
1) Seeding of the cells on D−1 (Day−1) or D−2
2) Incorporation/loading (D0) of the probe (1 h)
3) Addition of the products to the FlipR and measurement
4) Addition of the ligand to the FlipR and measurement in the presence of the products
5) Processing and exporting the data
The cells are cultivated in complete medium in Flask T225. For the experiments, the cells are transplanted in 200 μl of culture medium in 96-well (black, transparent-bottom) plates at a rate of 60 000 cells/well for use on D+1 or 40 000 cells/well for use on D+2.
The Fluo-4AM is prepared at 20 mM then aliquots are taken (50 μl) and stored at −20° C. away from the light. A solution of pluronic acid at 200 mg/ml in DMSO is also prepared (it has a shelf life of one week at room temperature away from the light).
The cells are charged with the Fluo-4AM+pluronic acid mixture (aliquot 50 μl+50 μl of pluronic acid) diluted to 1/100 in the measurement buffer.
After washing the wells with 150 μl of measurement buffer (cf. annex), the cells are then charged as follows: • distribution of 100 μl of measurement buffer in each well • addition of 10 μl of the Fluo-4AM+pluronic acid mixture diluted to 1/100.
The cells are incubated for 1 h at 37° C. away from the light, in an incubator in the presence of 5% CO2.
The cells are then washed 3 times with 150 μl of measurement buffer to remove the excess of the probe. A volume of 150 μl of buffer is added to each well at the end of washing.
After incubating the plates for 20 min at room temperature away from the light, they are placed in the FlipR for measurement of fluorescence.
The level of basic incorporation of the Fluo-4 is checked for each plate (sd<10%) before the first injection.
After stabilization of the basic signal, the GPR14 inhibiting compounds are injected by the FlipR under a volume of 50 μl from a dilution plate effected with Biomek 2000 in measurement buffer. […] Data recording is carried out continuously throughout the experiment.
For each plate, the basic fluorescence before injection of the compounds is standardized by the “spatial uniformity correction” function of the FlipR. The values of fluorescence measured just before injection of urotensin II (min) and those of the fluorescence measured at the peak of the effect of urotensin II (max) are exported under Excel. In each plate, a series of wells is treated with urotensin alone in the absence of inhibitor compound. The min and max fluorescence values for these wells are averaged for defining 100% effect of urotensin II. The percentage inhibition calculated for each concentration of inhibitor is calculated as follows: • for each well with Uro II (urotensin II)+inhibitor, calculation of the delta product value=max−min • for the well with Uro II alone, calculation of the value delta Uro II (average max−average min) […]
In general terms: A change in cytosolic calcium serves as a functional read-out for many receptors and channels.

Test [1] deals with T2, urotensin II receptors (rat aorta rings) (Rattus norvegicus, UniProt P49684).
T2 construct: The aortas are removed, washed and, after removing the endothelium, are cut into 4 rings; from tissue; host or cells: rat thoracic aorta rings, endothelium removed (Sprague-Dawley)
T2 sequence (P49684 1-386): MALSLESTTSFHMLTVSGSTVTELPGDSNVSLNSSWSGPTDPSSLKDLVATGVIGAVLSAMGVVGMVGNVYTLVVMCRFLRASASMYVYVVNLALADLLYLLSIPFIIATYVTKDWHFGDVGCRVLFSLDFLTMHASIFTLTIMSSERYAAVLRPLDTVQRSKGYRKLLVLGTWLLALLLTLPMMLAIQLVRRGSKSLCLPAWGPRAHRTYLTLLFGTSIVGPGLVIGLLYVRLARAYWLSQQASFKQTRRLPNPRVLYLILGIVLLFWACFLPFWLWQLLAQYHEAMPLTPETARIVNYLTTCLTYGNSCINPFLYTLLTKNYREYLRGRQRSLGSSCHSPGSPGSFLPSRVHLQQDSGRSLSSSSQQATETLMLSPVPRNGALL
Put plainly: Contraction of rat aorta rings induced by human urotensin II. Particulars: endothelium-denuded Sprague-Dawley rat aorta rings, antagonist added 30 min before urotensin II, single concentration.
Text: as §1
2. Contraction of Rat Aorta
Male Sprague-Dawley rats (400-500 g; C. River, France) are anaesthetized with 6% sodium pentobarbital (Ceva SantéAnimale) by intraperitoneal injection (0.4-0.5 ml), and then euthanized by exsanguination. The aortas are removed, washed and, after removing the endothelium, are cut into 4 rings of about 0.2-0.3 cm. Each fragment is placed in a container for isolated organs, containing 20 mL of Krebs solution with the following composition (mM): NaCl 118; KCl 4.7; MgCl2 1.2; CaCl2 2.6; NaHCO3 25; glucose 11.1; (pH=7.4).
The tissue, maintained at 37° and aerated with a stream of carbogen (95% O2-5% CO2), is connected to a Grass FT03 isometric sensor under a basic strain of 2 g, and to a Gould series 6600 amplifier for recording the variations in strain. Data acquisition is effected automatically on an HP Compaq PC using IOX software (version 2.2) from the company Emka.
After stabilization for 60 min, the viability of the preparation is tested by prestimulation with 60 mM of KCl. This contraction is repeated a second time and the strain that developed will serve as reference (100%) for standardizing the response to urotensin II.
The curve of concentration v. contractile response to urotensin II is then constructed cumulatively until a maximum response is obtained.
A single concentration-response curve is recorded owing to the desensitization effects induced by urotensin II.
The antagonists or the vehicle (DMSO 0.15% maximum) are added to the container 30 min before the agonist.
Human urotensin II is obtained from Bachem Ltd (UK) and is dissolved in 0.1% of BSA.
The responses are expressed as percentage of the maximum contraction observed with KCl. The results represent the mean+/−sem of the individual responses. N corresponds to the number of animals per batch.
Analysis of the sigmoid curves using the Everstat software (De Lean A, Munson P J, Rodbard D., Am J Physiol 1978; 235(2): E97-102.) permitted the EC50 (concentration producing 50% of the maximum response) and the Emax (maximum effect) to be determined.
To evaluate the potency of the antagonists based on a single concentration, the pKb were calculated according to the equation: pKb=−log [antagonist]M+log(concentration-ratio−1) (Furchgott R F, Blaschko H, Muscholl E, editors. Handbook of Exp Pharmacol, Catecholamines, Springer, Berlin Heidelberg N.Y.; 1972; 33:283-335) where concentration-ratio is the EC50 of the agonist in the presence of the antagonist divided by the EC50 of the agonist in the absence of the antagonist.
If several concentrations of antagonist are tested, the pA2 (±confidence limits) is calculated by the Schild plot method (Arunlakshana O and Schild H O, Br J Pharmacol, 1959; 14:48-58).

For the compound `Cc1ccccc1-c1ccc(C(=O)NC2(C(=O)O)C3CC4CC(C3)CC2C4)nc1-c1ccc(Cl)c(OCCCN(C)C)c1` (stereo not shown) [Compound No. 18, 2-({[6-{4-Chloro-3-[3-(dimethylamino)propoxy]phenyl}-5-(2-methylphenyl)pyridin-2-yl]carbonyl}amino)adamantane-2-carboxylic acid hydrochloride], the IC50 at human GPR14 receptor was 19 nM. The compound further had a Kb in test [1] of 316 nM.
Consider `Cc1ccccc1-c1ccc(C(=O)N[C@@H](CC(=O)O)C(C)C)nc1-c1ccc(Cl)c(OCCCN(C)C)c1` [compound 37], for which the IC50 on human GPR14 receptor stood at 72 nM. Also, the Kb in test [1] was 31.6 nM.
In the case of `Cc1cccnc1-c1ccc(C(=O)NC2(C(=O)O)CCCCC2)nc1-c1ccc(Cl)c(OCCCN(C)C)c1` [compound 58], the IC50 on human GPR14 receptor is 28 nM. In test [1], this compound showed a Kb of 251 nM.
The like results for `Cc1ncccc1-c1ccc(C(=O)NC2(C(=O)O)CCCCC2)nc1-c1ccc(Cl)c(OCCCN(C)C)c1` [compound 61] were, in that order, 9 nM and 79.4 nM.
With `CN(C)CCCOc1cc(-c2nc(C(=O)NC3(C(=O)O)CCCCC3)ccc2-c2ncc(Cl)cc2Cl)ccc1Cl` [compound 65, 1-{[(3,5-Dichloro-2′-{4-chloro-3-[3-(dimethylamino)propoxy]phenyl}-2,3′-bipyridin-6′-yl)carbonyl]amino}cyclohexanecarboxylic acid hydrochloride], the IC50 at human GPR14 receptor was 32 nM. Also, the Kb in test [1] was 316 nM.
Consider `Cc1ccc(-c2ccc(C(=O)NC3(C(=O)O)CCCCC3)nc2-c2ccc(Cl)c(OCCCN(C)C)c2)c(C)c1` [compound 66, 1-({[6-{4-Chloro-3-[3-(dimethylamino)propoxy]phenyl}-5-(2,4-dimethylphenyl)pyridin-2-yl]carbonyl}amino)cyclohexanecarboxylic acid hydrochloride], for which the IC50 at human GPR14 receptor is 4.2 nM. This compound gave a Kb in test [1] of 200 nM.
On the same counts, the results for `CCc1ccccc1-c1ccc(C(=O)NC2(C(=O)O)CCCCC2)nc1-c1ccc(Cl)c(OCCCN(C)C)c1` [compound 67] are 13 nM and 200 nM.
Turning to `Cc1ccc(C)c(-c2ccc(C(=O)NC3(C(=O)O)CCCCC3)nc2-c2ccc(Cl)c(OCCCN(C)C)c2)c1` [compound 70], at human GPR14 receptor, the IC50 stood at 32 nM. In addition, the Kb in test [1] is 631 nM.
On the same counts, the results for `Cc1ccccc1-c1ccc(C(=O)NC2(C(=O)O)CCCCCC2)nc1-c1ccc(Cl)c(OCCCN(C)C)c1` [compound 71] are 24 nM and 501 nM.
On the same counts, the results for `Cc1cc(C)n(-c2ccc(C(=O)NC3(C(=O)O)CCCCC3)nc2-c2ccc(Cl)c(OCCCN(C)C)c2)n1` [compound 75, 1-({[6-{4-Chloro-3-[3-(dimethylamino)propoxy]phenyl}-5-(3,5-dimethyl-1H-pyrazol-1-yl)pyridin-2-yl]carbonyl}amino)cyclohexanecarboxylic acid hydrochloride] are 21 nM and 251 nM.
With `COc1ccc(-c2ccc(C(=O)NC3(C(=O)O)CCCCC3)nc2-c2ccc(Cl)c(OCCCN(C)C)c2)c(Cl)c1` [compound 79], the IC50 on human GPR14 receptor was 31 nM. This compound had a Kb in test [1] of 158 nM.
The like results for `Cc1ccc(C(C)C)cc1-c1ccc(C(=O)NC2(C(=O)O)CCCCC2)nc1-c1ccc(Cl)c(OCCCN(C)C)c1` [compound 120] were, in that order, 16 nM and 79.4 nM.
With `Cc1ccc(-c2ncc(C(=O)NC3(C(=O)O)CCCCC3)nc2-c2ccc(Cl)c(OCCCN(C)C)c2)c(C)c1` [compound 123], at human GPR14 receptor, the IC50 is 4.2 nM. This compound also gave a Kb in test [1] of 316 nM.
The like results for `Cc1ccccc1-c1nc(N)c(C(=O)NC2(C(=O)O)CCCCC2)nc1-c1ccc(Cl)c(OCCCN(C)C)c1` [compound 129, 1-({[3-amino-6-{4-chloro-3-[3-(dimethylamino)propoxy]phenyl}-5-(2-methylphenyl)pyrazin-2-yl]carbonyl}amino)cyclohexanecarboxylic acid hydrochloride] were, in that order, 15 nM and 158 nM.

What is called IC50 is the concentration needed to halve the response being measured. One may read the Kb as the equilibrium dissociation constant of an antagonist, usually derived from a functional assay. Higher therefore signals a less potent antagonist.
